Square brackets hold non-standard residues; d marks the D form. Peptide text beside a SMILES is read from it. * marks the point of attachment. Sta = CC(C)C[C@H](N)[C@@H](O)CC(=O)O; Isovaleryl = CC(C)CC(=O)*
What was measured:
[1] = tested on: viral reverse transcriptase; settings: literature; cited from earlier work
HIV-I protease = settings: literature; cited from earlier work
HIV-1 protease = molecular target: T1, HIV-1 protease (Human immunodeficiency virus type 1 group M subtype B, UniProt P04585); experiment: In vitro HIV protease inhibitory assay (fluorescently labeled substrate, avidin-polystyrene particles); type: biochemical; settings: for inhibition at 3.3 µM: HIV-1 dose 3.3 μM; for inhibition at 10 µM: HIV-1 dose 10.0 μM; for inhibition at 30 µM: HIV-1 dose 30.0 μM
T1 construct: The protease (or proteinase) enzyme, consisting of only 99 amino acids
Method in brief: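 Biotinylated, FITC-labelled peptide substrate cleaved by HIV-1 protease for 1 h at room temperature in the dark, in 0.1 M sodium acetate pH 5.5 with 1.0 M NaCl and 0.05% NP-40. Product separated from substrate with avidin-polystyrene beads and filtration; fluorescence read as percent inhibition at stated compound concentrations.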

HIV-1IIIB = experiment: Inhibition of retroviral replication in human T-cell lines, e.g., MT4 and H9, infected with HIV-1IIIB; type: cell-based

Structure (SMILES) | inhibition at 3.3 µM (HIV-1 protease) [%] | inhibition at 10 µM (HIV-1 protease) [%] | inhibition at 30 µM (HIV-1 protease) [%] | also measured
Cc1cn([C@H]2C[C@H](N=[N+]=[N-])[C@@H](CO)O2)c(=O)[nH]c1=O [AZT, 3-azido-3-deoxythymidine] |  |  |  | inhibition of viral reverse transcriptase [1]: known inhibitor of viral reverse transcriptase
CC(C)CC(=O)N[C@H](C(=O)N[C@H](C(=O)N[C@@H](CC(C)C)[C@@H](O)CC(=O)N[C@@H](C)C(=O)N[C@@H](CC(C)C)[C@@H](O)CC(=O)O)C(C)C)C(C)C [Pepstatin A] (Isovaleryl-VV[Sta]A[Sta]-OH) |  |  |  | inhibition of HIV-I protease (HIV-I protease): disclosed as an inhibitor of HIV-I protease
CCCC1(Cc2ccccc2)OC(=O)C(C(c2cccc(NS(=O)(=O)c3cn(C)cn3)c2)C(C)C)=C1O (stereo not shown) [IX-30] | 97.1 | 96.6 | 94.3 | 
CCCC1(CCC)OC(=O)C(C(c2cccc(NS(=O)(=O)c3ccc(C#N)cc3)c2)C(C)C)=C1O (stereo not shown) [IX-23, Benzenesulfonamide, 4-Cyano-N-(3-(1-(4-hydroxy-2-oxo-5,5-dipropyl-2,5-dihydro-furan-3-yl)-2-methyl-propyl)-phenyl)-] | 109 | 101 | 112 | 
CCCC1(CCC)OC(=O)C(C(c2cccc(NS(=O)(=O)c3ncccn3)c2)C2CC2)=C1O (stereo not shown) [IX-55, 2-Pyrimidinesulfonamide, N-(3-(cyclopropyl-(4-hydroxy-2-oxo-5,5-dipropyl-2,5 dihydro-furan-3-yl)-methyl)-phenyl)-] | 93.8 | 93.8 | 96.3 | 
CCC(CC)C1OC(=O)C(C(c2ccccc2)C2CC2)=C1O (stereo not shown) [GX-8, 2(5H)-Furanone, 3-(cyclopropylphenylmethyl)-5-(1-ethylpropyl)-4-hydroxy-] | 85.9 | 104 | 84.3 | 
CCC1(CCCc2ccccc2)OC(=O)C(C(c2ccccc2)C2CC2)=C1O (stereo not shown) [DX-11, 2(5H)-Furanone, 3-(cyclopropylphenylmethyl)-5-ethyl-4-hydroxy-5-(3-phenyl-propyl)-] | 101 | 111 | 105 | 
CCCC1(CCC)OC(=O)C(C(c2cccc(NS(=O)(=O)c3nccn3C)c2)C2CC2)=C1O (stereo not shown) [IX-37, 1-Methyl-1H-imidazole-2-sulfonamide, N-(3-(cyclopropyl(2,5-dihydro-4-hydroxy-2-oxo-5,5-dipropyl-3-furanyl)methyl)phenyl)-] | 99.2 | 100 | 96.7 | 
O=C1OC2(CCCCC2Cc2ccccc2)C(O)=C1C(c1ccccc1)C1CC1 (stereo not shown) [IX-7, 1-Oxaspiro[4.5]dec-3-en-2-one, 3-(cyclo-propylphenylmethyl)4-hydroxy-6--(2-phenylmethyl)-] |  |  |  | HIV-1 Protease % Inhibition (HIV-1 protease; test compound concentration 3.3 μM): 102.85%; HIV-1 Protease % Inhibition (HIV-1 protease; test compound concentration 10.0 μM): 99.7%; HIV-1 Protease % Inhibition (HIV-1 protease; test compound concentration 30.0 μM): 95.76%
O=C1OC(CCCc2ccccc2)(CC2CC2)C(O)=C1C(c1ccccc1)C1CC1 (stereo not shown) [DX-14] |  |  |  | inhibition at 0.123 µM (HIV-1 protease; HIV-1 dose 0.123 μM): 89.2%; inhibition at 0.37 µM (HIV-1 protease; HIV-1 dose 0.37 μM): 104%
CCCC1(CCC)OC(=O)C(C(c2cccc(NC(=O)OCc3ccccc3)c2)C2CC2)=C1O (stereo not shown) [IX-32, Carbamic acid, (3-(cyclopropyl(2,5-dihydro-4-hydroxy-2-oxo-5,5-dipropyl-3-furanyl)methyl)phenyl)-, phenylmethyl ester] | 100 | 106 | 111 | 
O=C1OC2(CCCCCCC2)C(O)=C1C(c1ccccc1)C1CC1 (stereo not shown) [CX-2, 1-Oxaspiro[4.7]dodec-3-en-2-one, 3-(cyclopropylphenylmethyl)-4-hydroxy-] |  | 104 | 110 | inhibition at 1.1 µM (HIV-1 protease; HIV-1 dose 1.1 μM): 96%
CC1(CCc2ccccc2)OC(=O)C(C(c2ccccc2)C2CC2)=C1O (stereo not shown) [CX-3, 2(5H)-Furanone, 3-(cyclopropylphenylmethyl)-4-hydroxy-5-methyl-5-(2--phenylethyl)-] | 98.1 | 111 | 118 | 

Continued, in another order:

inhibition at 3.3 µM (HIV-1 protease) [%] | inhibition at 10 µM (HIV-1 protease) [%] | inhibition at 30 µM (HIV-1 protease) [%] | Structure (SMILES) | also measured
102 | 101 | 102 | CCCC1(CCC)OC(=O)C(C(c2cccc(NS(=O)(=O)c3cn(C)cn3)c2)C(C)C)=C1O (stereo not shown) [IX-24, 1H-Imidazole-4-sulfonamide, N-(3-(1-(4-hydroxy-2-oxo-5,5-dipropyl-2,5-dihydro-furan-3-yl)-2-methyl-propyl)-phenyl)-1-methyl-] | inhibition of retroviral replication (HIV-1IIIB): found to inhibit retroviral replication
113 | 111 | 119 | CCCC1(CCC)OC(=O)C(C(c2cccc(NS(=O)(=O)c3ccc(C#N)cc3)c2)C2CC2)=C1O (stereo not shown) [IX-14] | inhibition of retroviral replication (HIV-1IIIB): found to inhibit retroviral replication
108 | 111 | 108 | CCCC1(CCC)OC(=O)C(C(c2cccc(NS(=O)(=O)c3cn(C)cn3)c2)C2CC2)=C1O (stereo not shown) [IX-17] | inhibition of retroviral replication (HIV-1IIIB): found to inhibit retroviral replication
< 10 | 18 | 40 | O=C1OC(C(O)C=Cc2ccccc2)C(O)=C1C(c1ccccc1)C1CC1 (stereo not shown) [BX-7, 2(5H)-Furanone, 3-(cyclopropylphenylmethyl)-4-hydroxy-5-(1-hydroxy-3--phenyl-2-propenyl)-] | 
120 | 120 | 117 | CCCC1(CCC)OC(=O)C(C(c2cccc(NS(=O)(=O)c3ccc(C#N)cc3)c2)C(C)(C)C)=C1O (stereo not shown) [IX-25, Benzenesulfonamide, 4-Cyano-N-(3-(1-(4-hydroxy-2-oxo-5,5-dipropyl-2,5-dihydro-furan-3-yl)-2,2-dimethyl-propyl)-phenyl)-] | 
97.4 | 96.9 | 101 | CCCC1(CCC)OC(=O)C(C(c2cccc(NS(=O)(=O)c3ccc(C#N)cc3)c2)C2CCCC2)=C1O (stereo not shown) [IX-41] | 
81.9 | 101 | 92.5 | N#Cc1ccc(S(=O)(=O)Nc2cccc(CC3=C(O)C(Cc4ccccc4)(Cc4ccccc4)OC3=O)c2)cc1 [IX-56] | 
99 | 99.4 | 97.6 | CCC1CCCCC12OC(=O)C(C(c1ccccc1)C1CC1)=C2O (single isomer, unassigned) [IX-33, 1-Oxaspiro[4.5]dec-3-en-2-one, 3-(cyclopropylphenylmethyl)-4-hydroxy-6-ethyl-] | 
86.7 | 104 | 99.8 | O=C1OC(CCc2ccccc2)(CCc2ccccc2)C(O)=C1C(c1ccccc1)C1CC1 (stereo not shown) [DX-9, 2(5H)-Furanone, 3-(cyclopropylphenylmethyl)-4-hydroxy-5,5-bis(2-phenylethyl)-] | 
79.8 | 86.8 | 87.4 | O=C1OC2(CCN(C(=O)OCC3c4ccccc4-c4ccccc43)CC2)C(O)=C1C(c1ccccc1)C1CC1 (stereo not shown) [IX-58, 3-(Cyclopropyl-phenyl-methyl)-4-hydroxy-2-oxo-1-oxa-8-aza-spiro[4.5]dec-3-ene-8-carboxylic acid 9H-fluoren-9-ylmethyl ester] | 
103 | 126 | 105 | CCCC1(CCC)OC(=O)C(C(c2cccc(NS(=O)(=O)c3cccc4ccccc34)c2)C2CC2)=C1O (stereo not shown) [IX-19] | 
65.7 | 77.2 | 82.1 | O=C1OC(CC=Cc2ccccc2)C(O)=C1C(c1ccccc1)C1CC1 (stereo not shown) [BX-6, 2(5H)-Furanone, 3-(cyclopropylphenylmethyl)-4-hydroxy-5-(3-phenyl-2-propenyl)-] | 
70.9 | 88.3 | 74.9 | CCCCC(CCc1ccccc1)C1OC(=O)C(C(c2ccccc2)C2CC2)=C1O (stereo not shown) [GX-2, 2(5H)-Furanone, 3-(cyclopropylphenylmethyl)-4-hydroxy-5-(1-(2-phenyl-ethyl)pentyl)-] | 
102 | 114 | 103 | O=C1OC2(CCCCC2)C(O)=C1C(c1ccccc1)C1CC1 (stereo not shown) [IX-3, 1-Oxaspiro[4.5]dec-3-en-2-one, 3-(cyclopropyl-phenylmethyl)-4-hydroxy-] | 
